Measured values taken from patent publication US10543156B2, “Shaping keratin fibres using 2-oxazolidinone compounds” (The Procter & Gamble Company, priority 2015, dated 2020).

Experiment: Hair straightening efficacy on hair switches, expert grading
Conditions: after 5 wash cycles; for Straightening efficacy Mean grade: 20% active agent in crosslinking composition with 100 ppm 4,5-dibromofluorescein, 100 ppm Eosin Y, water buffered at pH 10, irons at 121° C. with UV light at 380 nm, 8 passes, score on 0-10 scale (0 curly, 10 very straight)
Experimental: The hair straightening efficacy is tested for the crosslinking compositions described herein. Switches of low lift naturally curly hair are employed. These are shampooed with a Pantene clarifying shampoo to ensure the hair is in a clean state with no residues that could affect the end result. The switches are then rinsed. Excess water is removed from the hair by wringing out the switches. The switches are treated with a crosslinking composition which is pre-prepared in a dark room. The crosslinking composition comprises: active agent as listed in TABLE 2; 100 ppm 4,5-dibromofluorescein; 100 ppm Eosin Y; QSP water buffered at pH 10. These ingredients are mixed on a spinner plate for 30 mins. The crosslinking composition is stored in an amber bottle or a bottle covered in electrical tape to ensure no light access to the crosslinking composition. 0.5 g of crosslinking composition per 1 g hair is employed. The crosslinking composition is left on the hair for 30 minutes. After this time, the hair is blow dried, brushed, and is then mechanically straightened with hybrid light and heat emitting straightening irons (at 250° F. [121° C.] and emitting UV light at 380 nm) with 8 passes.
The switches are then imaged. To simulate durability, the switches are then given one wash-and-dry cycle. One wash-and-dry cycle involves shampooing with a Hairtrition shampoo (Hairtrition Color Protect sulfate-free shampoo from Zotos), rinsing and then drying in a hot box. Once dry the switches are imaged again. The switches are then given 4 further wash-and-dry cycles. Once dry the switches are imaged again. An expert grader gives the images of the switches a score on a 0-10 scale. The scale is a standard scale set as curly hair having 4-5 nodes of curls is a score of 0 and very straight hair is a 10. Thus, the switches are compared to a normal state of hair.
Using an expert grader is reliable because the grader is trained on measuring/scaling the configuration of the hair from straight to curly in a consistent way. Numeric data obtained by this method is averaged, and statistical analysis is conducted using JMP statistical software available from SAS Institute at the 87% confidence level.

Structure (SMILES) | Straightening efficacy Mean grade | Straightening efficacy compared with the control (in words) (statistical analysis at the 87% confidence level)
O=C1NCCO1 [2-oxazolidinone] | 3.7 | 
O=C1OCCN1CCO [N-(hydroxyethyl)-2-oxazolidinone] | 4.3 | significantly better straightening efficacy than the control
CC(=O)N1CCOC1=O [N-acetyl-2-oxazolidinone] | 3.0 | 
